{"source": "patent US20210062149A1", "about": "“SINGLE B-CELL CULTIVATION METHOD” (Hoffmann-La Roche Inc., priority 2010, published 2021)", "molecules": {"B1": {"name": "IL-4: interleukin-4, cytokine additive of the feeder mix (protein, UniProt P07750 21-140, looked up)", "Interleukin-4": "HIHGCDKNHLREIIGILNEVTGEGTPCTEMDVPNVLTATKNTTESELVCRASKVLRIFYLKHGKTPCLKKNSSVLMELQRLFRAFRCLDSSISCTMNESKSTSLKDFLESLKSIMQMDYS"}}, "key": {"rabbit B-cells": {"system": "rabbit B-cells", "assay": "rbIgG ELISA of cell culture supernatants of rabbit B-cells co-cultivated with EL-4 B5 feeder cells", "format": "cell-based", "conditions": "for B-cell growth: SAC added to feeder mix", "description": "(§1) a) The co-cultivation was performed in 96-well multi well plates with round bottom. A basis solution comprising EL-4 B5 cells (1.6×10^6 cells/15.2 ml) and cytokines in EL-4 B5 medium was prepared. 200 μl of the basis solution was added to each well of the multi well plate. To each well a single B-cell was added by fluorescence activated cell sorting. After the addition of the B-cells the plate was centrifuged for 5 min. at 300×g. The plate is incubated for seven days at 37° C.\n[…] B cell culture supernatants were removed for screening and the cells harvested immediately for variable region gene cloning or frozen at −80° C. in 100 μl RLT buffer (Qiagen, Hilden, Germany).\n(§2) The 96-well multi well plate in which the co-cultivation was performed was centrifuged after seven days of co-cultivation at 300×g for 5 min. 150 μl supernatant was removed and diluted at a ratio of 2:1 with PBS in a second 96-well multi well plate.\nThe ELISA was performed as outlined in Example 17.\nThe antibody was used at a concentration of 50 ng/ml. If the OD was or exceeded 1 after an incubation time of 5 min. a dilution series of from 0.8 to 108 ng/ml IgG was tested.\nAntibodies produced by single deposited and co-cultivated B-cells or from B-cells obtained from an immunized experimental animal can be characterized with respect to specific antigen binding. The ELISA was performed at room temperature and the ELISA-solution was incubated between the individual steps on a shaker at 20×g. In the first step the antigen was bound to the wells of a 96-well multi well plate. If the antigen was a protein it had been diluted in coating buffer and applied directly to the plate. Peptide antigens were bound via the specific binding pair biotin/streptavidin. The wells of the multi well plate can be already coated with soluble CroteinC (CrC) by the manufacturer. If not, the wells were incubated after the immobilization of the antigen with 200 μl blocking buffer. After the incubation with 100 μl antigen solution per well (pre-coated multi well plate) or 200 μl blocking buffer, respectively, non-bound antigen or blocking buffer was removed by washing with wash buffer. The diluted B-cell supernatants were added in a volume of 100 μl per well and incubated. After the incubation the wells were washed. Afterwards the detection antibody was added in a volume of 100 μl per well. The antibody can be either conjugated to horseradish peroxidase or labeled with biotin. The detection antibody was determined with a streptavidin-horseradish peroxidase conjugate. After the incubation the multi well plate was washed and afterwards 50 μl of a substrate solution containing 3,3′,5,5′ tetramethyl benzidine (TMB) were added per well and incubated for a period as given in Table X. The enzymatic reaction was stopped by the addition of 50 μl sulfuric acid and the optical density was determined at 450 nm and 680 nm with a photometer (Rainbow Thermo ELISA Reader) and the Xread plus-software."}, "hamster B-cells": {"system": "hamster B-cells", "assay": "Co-cultivation of B-cells with feeder cells and feeder mix additives", "format": "cell-based", "description": "as §1, §2"}, "murine B-cells": {"system": "murine B-cells", "assay": "Co-cultivation of B-cells with feeder cells and feeder mix additives", "format": "cell-based, mouse", "description": "as §1, §2"}, "[1]": {"conditions": "PAP-1 0.01 μM, in the presence of TSN and SAC"}, "[2]": {"conditions": "PAP-1 0.1 μM, in the presence of TSN and SAC"}, "[3]": {"conditions": "PAP-1 1 μM, in the presence of TSN and SAC"}, "[4]": {"conditions": "PAP-1 10 μM, in the presence of TSN and SAC"}, "[5]": {"conditions": "addition of PAP-1 to co-cultivation"}, "[6]": {"conditions": "SAC 1:20000, Table 8a third block (with w/o control)"}, "[7]": {"conditions": "SAC 1:50000, Table 8a third block"}, "[8]": {"conditions": "SAC 1:100000, Table 8a third block"}, "[9]": {"conditions": "SAC 1:150000, Table 8a third block"}, "[10]": {"conditions": "TSN + SAC, SAC 1:5000, Table 8a second block"}, "[11]": {"conditions": "TSN + SAC, SAC 1:10000, Table 8a second block"}, "[12]": {"conditions": "TSN + SAC, SAC 1:20000, Table 8a second block"}, "[13]": {"conditions": "TSN + SAC, SAC 1:40000, Table 8a second block"}}}
{"molecule": "O=c1ccc2c(OCCCCOc3ccccc3)c3ccoc3cc2o1", "note": "[PAP-1, 5-(4-phenoxybutoxy) psoralene, reference compound]", "values": [{"measurement": "rbIgG conc. of all huCk^+ wells [average ng/ml]", "setting": "rabbit B-cells; [1]", "result": 289.0, "unit": "ng/mL"}, {"measurement": "rbIgG^+ wells [% total wells]", "setting": "rabbit B-cells; [1]", "result": 29, "unit": "% total wells"}, {"measurement": "rbIgG^+ wells [n]", "setting": "rabbit B-cells; [1]", "result": 72, "unit": "n"}, {"measurement": "rbIgG conc. of all huCk^+ wells [average ng/ml]", "setting": "rabbit B-cells; [2]", "result": 452.9, "unit": "ng/mL"}, {"measurement": "rbIgG^+ wells [% total wells]", "setting": "rabbit B-cells; [2]", "result": 27, "unit": "% total wells"}, {"measurement": "rbIgG^+ wells [n]", "setting": "rabbit B-cells; [2]", "result": 69, "unit": "n"}, {"measurement": "rbIgG conc. of all huCk^+ wells [average ng/ml]", "setting": "rabbit B-cells; [3]", "result": 579.5, "unit": "ng/mL"}, {"measurement": "rbIgG^+ wells [% total wells]", "setting": "rabbit B-cells; [3]", "result": 37, "unit": "% total wells"}, {"measurement": "rbIgG^+ wells [n]", "setting": "rabbit B-cells; [3]", "result": 93, "unit": "n"}, {"measurement": "rbIgG conc. of all huCk^+ wells [average ng/ml]", "setting": "rabbit B-cells; [4]", "result": 890.7, "unit": "ng/mL"}, {"measurement": "rbIgG^+ wells [% total wells]", "setting": "rabbit B-cells; [4]", "result": 32, "unit": "% total wells"}, {"measurement": "rbIgG^+ wells [n]", "setting": "rabbit B-cells; [4]", "result": 80, "unit": "n"}, {"measurement": "effect on number of B-cell clones", "setting": "rabbit B-cells; [5]", "result": "without decreasing the number of B-cell clones"}, {"measurement": "effect on rbIgG secretion of B-cells", "setting": "rabbit B-cells; [5]", "result": "increases the rbIgG secretion of B-cells in a concentration dependent manner"}]}
{"molecule": "IL-6: interleukin-6, cytokine additive of the feeder mix", "values": [{"measurement": "IgG-concentration", "setting": "hamster B-cells; addition of IL-6 to the feeder mix, hamster-B-cells", "result": "increased IgG-concentration"}, {"measurement": "number of IgG^+-wells/cell clones", "setting": "murine B-cells; addition of IL-6 to the feeder mix, murine-B-cells", "result": "increased number of IgG^+-wells/cell clones"}]}
{"molecule": "Staphylococcus aureus strain Cowans cells [SAC]", "values": [{"measurement": "rbIgG conc. of all rbIgG^+ wells [Ø ng/ml]", "setting": "rabbit B-cells; [6]", "result": 665, "unit": "ng/mL"}, {"measurement": "rbIgG^+ wells [% total wells]", "setting": "rabbit B-cells; [6]", "result": 30, "unit": "% total wells"}, {"measurement": "rbIgG^+ wells [n]", "setting": "rabbit B-cells; [6]", "result": 75, "unit": "n"}, {"measurement": "rbIgG conc. of all rbIgG^+ wells [Ø ng/ml]", "setting": "rabbit B-cells; [7]", "result": 742, "unit": "ng/mL"}, {"measurement": "rbIgG^+ wells [% total wells]", "setting": "rabbit B-cells; [7]", "result": 37, "unit": "% total wells"}, {"measurement": "rbIgG^+ wells [n]", "setting": "rabbit B-cells; [7]", "result": 93, "unit": "n"}, {"measurement": "rbIgG conc. of all rbIgG^+ wells [Ø ng/ml]", "setting": "rabbit B-cells; [8]", "result": 774, "unit": "ng/mL"}, {"measurement": "rbIgG^+ wells [% total wells]", "setting": "rabbit B-cells; [8]", "result": 37, "unit": "% total wells"}, {"measurement": "rbIgG^+ wells [n]", "setting": "rabbit B-cells; [8]", "result": 92, "unit": "n"}, {"measurement": "rbIgG conc. of all rbIgG^+ wells [Ø ng/ml]", "setting": "rabbit B-cells; [9]", "result": 668, "unit": "ng/mL"}, {"measurement": "rbIgG^+ wells [% total wells]", "setting": "rabbit B-cells; [9]", "result": 29, "unit": "% total wells"}, {"measurement": "rbIgG^+ wells [n]", "setting": "rabbit B-cells; [9]", "result": 72, "unit": "n"}, {"measurement": "B-cell growth", "setting": "rabbit B-cells; PBL (B cells and endogenous T cells) mixture for co-cultivation", "result": "B-cell growth was inhibited"}, {"measurement": "B-cell growth", "setting": "rabbit B-cells; single deposited B-cells", "result": "only single deposited B-cells have a benefit in growth"}, {"measurement": "number of IgG^+-wells/cell clones", "setting": "rabbit B-cells; SAC ratio of from 1:20000 to 1:150000", "result": "increased number of IgG^+-wells/cell clones"}, {"measurement": "number of IgG^+-wells/cell clones", "setting": "rabbit B-cells; SAC ratio of from 1:50000 to 1:100000", "result": "highest numbers"}, {"measurement": "rbIgG conc. of all rbIgG^+ wells [Ø ng/ml]", "setting": "rabbit B-cells; [10]", "result": 149.0, "unit": "ng/mL"}, {"measurement": "rbIgG^+ wells [% total wells]", "setting": "rabbit B-cells; [10]", "result": 15, "unit": "% total wells"}, {"measurement": "rbIgG^+ wells [n]", "setting": "rabbit B-cells; [10]", "result": 13, "unit": "n"}, {"measurement": "rbIgG conc. of all rbIgG^+ wells [Ø ng/ml]", "setting": "rabbit B-cells; [11]", "result": 159.1, "unit": "ng/mL"}, {"measurement": "rbIgG^+ wells [% total wells]", "setting": "rabbit B-cells; [11]", "result": 18, "unit": "% total wells"}, {"measurement": "rbIgG^+ wells [n]", "setting": "rabbit B-cells; [11]", "result": 15, "unit": "n"}, {"measurement": "rbIgG conc. of all rbIgG^+ wells [Ø ng/ml]", "setting": "rabbit B-cells; [12]", "result": 233.7, "unit": "ng/mL"}, {"measurement": "rbIgG^+ wells [% total wells]", "setting": "rabbit B-cells; [12]", "result": 32, "unit": "% total wells"}, {"measurement": "rbIgG^+ wells [n]", "setting": "rabbit B-cells; [12]", "result": 27, "unit": "n"}, {"measurement": "rbIgG conc. of all rbIgG^+ wells [Ø ng/ml]", "setting": "rabbit B-cells; [13]", "result": 197.2, "unit": "ng/mL"}, {"measurement": "rbIgG^+ wells [% total wells]", "setting": "rabbit B-cells; [13]", "result": 36, "unit": "% total wells"}, {"measurement": "rbIgG^+ wells [n]", "setting": "rabbit B-cells; [13]", "result": 30, "unit": "n"}, {"measurement": "number of antibody secreting B-cells and average IgG-concentration in the supernatant after co-cultivation", "setting": "rabbit B-cells; addition of SAC, single SAC lot", "result": "can be increased"}]}
{"molecule": "B1", "values": [{"measurement": "number of IgG^+-wells/cell clones and IgG-concentration in the supernatant", "setting": "hamster B-cells; addition of IL-4 to the feeder mix, hamster B-cells", "result": "increases the number of IgG^+-wells/cell clones as well as the IgG-concentration in the supernatant"}, {"measurement": "number of IgG^+-wells/cell clones and IgG-concentration in the supernatant", "setting": "murine B-cells; addition of IL-4 to the feeder mix, murine B-cells", "result": "increases the number of IgG^+-wells/cell clones as well as the IgG-concentration in the supernatant"}]}
